Test results from patent US12077503B2, “Substituted cyclic amides and their use as herbicides” (FMC CORPORATION, priority 2015, dated 2024).

Legend:
Type in all cases: in vivo
[1] = system: pigweed (Amaranthus retroflexus); assay: Test A postemergence; settings: Amaranthus retroflexus, post-emergence, 240 h, Postemergence, read-out: Pigweed plant response rating (0 to 100 scale)
Procedure, shortened: (§1)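 In a loam soil and sand blend, planted seeds got a preemergence directed soil spray, and young plants at the one- to two-leaf stage, 2–10 cm high, got a postemergence application; ~10 d greenhouse hold; injury rated visually, 0 = none, 100 = complete control.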

corn (Zea mays) = assay: Test A postemergence; settings: Zea mays, post-emergence, 240 h, Postemergence, read-out: Corn plant response rating (0 to 100 scale)
Procedure, shortened: as §1

[2] = system: ragweed (common ragweed, Ambrosia elatior); assay: Test A postemergence; settings: Ambrosia artemisiifolia, post-emergence, 240 h, Postemergence, read-out: Ragweed plant response rating (0 to 100 scale)
Procedure, shortened: as §1

[3] = system: blackgrass (Alopecurus myosuroides); assay: Test A postemergence; settings: Alopecurus myosuroides, post-emergence, 240 h, Postemergence, read-out: Blackgrass plant response rating (0 to 100 scale)
Procedure, shortened: as §1

[4] = system: wheat (Triticum aestivum); assay: Test A postemergence; settings: Triticum aestivum, post-emergence, 240 h, Postemergence, read-out: Wheat plant response rating (0 to 100 scale)
Procedure, shortened: as §1

[5] = system: barnyardgrass (Echinochloa crus-galli); assay: Test A postemergence; settings: Echinochloa crus-galli, post-emergence, 240 h, Postemergence
Procedure, shortened: as §1

[6] = system: giant foxtail (Setaria faberii); assay: Test A postemergence; settings: Setaria faberi, post-emergence, 240 h, Postemergence, read-out: Foxtail, Giant plant response rating (0 to 100 scale)
Procedure, shortened: as §1

[7] = system: ryegrass, Italian (Italian ryegrass, Lolium multiflorum); assay: Test A postemergence; settings: Lolium multiflorum, post-emergence, 240 h, Postemergence, read-out: Ryegrass, Italian plant response rating (0 to 100 scale)
Procedure, shortened: as §1

Kochia (Kochia scoparia) [8] = assay: Test A postemergence; settings: Bassia scoparia, post-emergence, 240 h, Postemergence, read-out: Kochia plant response rating (0 to 100 scale)
Procedure, shortened: as §1

[9] = system: barnyardgrass (Echinochloa crus-galli); assay: Test B flooded paddy test; settings: Echinochloa crus-galli, 360 h, Flood, 250 g ai/ha; visually evaluated after 13 to 15 d; read-out: Plant response rating, Barnyardgrass (0 to 100 scale where 0 is no effect and 100 is complete control)
Procedure, shortened: (§2)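 Plants at 2-leaf stage flooded to 3 cm above soil, with compounds applied directly to paddy water and that depth maintained. Plants kept in greenhouse 13–15 d. Visual rating versus controls on a 0 (no effect) to 100 (complete control) scale.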

[10] = system: ducksalad (Heteranthera limosa); assay: Test B flooded paddy test; settings: Heteranthera limosa, 360 h, Flood, 250 g ai/ha; visually evaluated after 13 to 15 d; read-out: Plant response rating, Ducksalad (0 to 100 scale where 0 is no effect and 100 is complete control)
Procedure, shortened: as §2

[11] = system: sedge, umbrella (small-flower umbrella sedge, Cyperus difformis); assay: Test B flooded paddy test; settings: Cyperus difformis, 360 h, Flood, 250 g ai/ha; visually evaluated after 13 to 15 d; read-out: Plant response rating, Sedge, Umbrella (0 to 100 scale where 0 is no effect and 100 is complete control)
Procedure, shortened: as §2

rice (Oryra sativa) = assay: Test B flooded paddy test; settings: Oryza sativa, 360 h, Flood, 250 g ai/ha; visually evaluated after 13 to 15 d; read-out: Plant response rating, Rice (0 to 100 scale where 0 is no effect and 100 is complete control)
Procedure, shortened: as §2

[12] = system: pigweed (Amaranthus retroflexus); assay: Test A preemergence; settings: Amaranthus retroflexus, pre-emergence, 240 h, Preemergence
[13] = system: ragweed (common ragweed, Ambrosia elatior); assay: Test A preemergence; settings: Ambrosia artemisiifolia, pre-emergence, 240 h, Preemergence
Procedure, shortened: as §1

[14] = system: barnyardgrass (Echinochloa crus-galli); assay: Test A preemergence; settings: Echinochloa crus-galli, pre-emergence, 240 h, Preemergence
Procedure, shortened: as §1

[15] = system: giant foxtail (Setaria faberii); assay: Test A preemergence; settings: Setaria faberi, pre-emergence, 240 h, Preemergence
Procedure, shortened: as §1

[16] = system: ryegrass, Italian (Italian ryegrass, Lolium multiflorum); assay: Test A preemergence; settings: Lolium multiflorum, pre-emergence, 240 h, Preemergence
Procedure, shortened: as §1

Kochia (Kochia scoparia) [17] = assay: Test A preemergence; settings: Bassia scoparia, pre-emergence, 240 h, Preemergence
Procedure, shortened: as §1

[18] = 125 g ai/ha, visual rating about 10 d after treatment
[19] = 31 g ai/ha, 0 is no effect, 100 is complete control

## COc1ccc([C@H]2CNC(=O)[C@@H]2C(=O)Nc2cccc(F)c2F)cc1 [Compound 1341]
[1]; [18]
  pest or weed control at 125 g/ha: 0%
[1]; [19]
  pest or weed control at 31 g/ha: 0%
Corn (Zea mays); [18]
  plant injury at 125 g/ha: 0%
Corn (Zea mays); [19]
  plant injury at 31 g/ha: 0%
[2]; [18]
  pest or weed control at 125 g/ha: 0%
[2]; [19]
  pest or weed control at 31 g/ha: 0%
[3]; [18]
  pest or weed control at 125 g/ha: 0%
[3]; [19]
  pest or weed control at 31 g/ha: 0%
[4]; [18]
  plant injury at 125 g/ha: 0%
[4]; [19]
  plant injury at 31 g/ha: 0%
[5]; 125 g ai/ha, visual rating about 10 d after treatment, read-out: Barnyardgrass plant response rating (0 to 100 scale, 0 no effect, 100 complete control)
  pest or weed control at 125 g/ha: 90%
[5]; 31 g ai/ha, 0 is no effect, 100 is complete control, read-out: Barnyardgrass plant response rating (0 to 100 scale)
  pest or weed control at 31 g/ha: 40%
[6]; [18]
  pest or weed control at 125 g/ha: 0%
[6]; [19]
  pest or weed control at 31 g/ha: 0%
[7]; [18]
  pest or weed control at 125 g/ha: 0%
[7]; [19]
  pest or weed control at 31 g/ha: 0%
Kochia (Kochia scoparia) [8]; [18]
  pest or weed control at 125 g/ha: 0%
Kochia (Kochia scoparia) [8]; [19]
  pest or weed control at 31 g/ha: 0%
[9]
  pest or weed control at 250 g/ha: 30%
[10]
  pest or weed control at 250 g/ha: 90%
[11]
  pest or weed control at 250 g/ha: 0%
Rice (Oryra sativa)
  pest or weed control at 250 g/ha: 0%
[12]; 31 g ai/ha, 0 to 100 scale where 0 is no effect and 100 is complete control, read-out: Pigweed plant response rating
  pest or weed control at 31 g/ha: 0%
[12]; 125 g ai/ha, 0 to 100 scale (0 no effect, 100 complete control), read-out: Plant response rating, Pigweed
  pest or weed control at 125 g/ha: 0%
[13]; 31 g ai/ha, 0 to 100 scale where 0 is no effect and 100 is complete control, read-out: Ragweed plant response rating
  pest or weed control at 31 g/ha: 20%
[13]; 125 g ai/ha, 0 to 100 scale (0 no effect, 100 complete control), read-out: Plant response rating, Ragweed
  pest or weed control at 125 g/ha: 0%
[14]; 31 g ai/ha, 0 to 100 scale where 0 is no effect and 100 is complete control, read-out: Barnyardgrass plant response rating
  pest or weed control at 31 g/ha: 0%
[14]; 125 g ai/ha, 0 to 100 scale (0 no effect, 100 complete control), read-out: Plant response rating, Barnyardgrass
  pest or weed control at 125 g/ha: 60%
[15]; 31 g ai/ha, 0 to 100 scale where 0 is no effect and 100 is complete control, read-out: Foxtail, Giant plant response rating
  pest or weed control at 31 g/ha: 10%
[15]; 125 g ai/ha, 0 to 100 scale (0 no effect, 100 complete control), read-out: Plant response rating, Foxtail, Giant
  pest or weed control at 125 g/ha: 70%
[16]; 31 g ai/ha, 0 to 100 scale where 0 is no effect and 100 is complete control, read-out: Ryegrass, Italian plant response rating
  pest or weed control at 31 g/ha: 0%
[16]; 125 g ai/ha, 0 to 100 scale (0 no effect, 100 complete control), read-out: Plant response rating, Ryegrass, Italian
  pest or weed control at 125 g/ha: 0%
Kochia (Kochia scoparia) [17]; 31 g ai/ha, 0 to 100 scale where 0 is no effect and 100 is complete control, read-out: Kochia plant response rating
  pest or weed control at 31 g/ha: 30%
Kochia (Kochia scoparia) [17]; 125 g ai/ha, 0 to 100 scale (0 no effect, 100 complete control), read-out: Plant response rating, Kochia
  pest or weed control at 125 g/ha: 0%
